Drawing on ChEMBL document CHEMBL3638739, “Medical composition for treatment or prophylaxis of glaucoma” (2014), this text covers Ki for seven compounds.

This assay deals with Prostaglandin E2 receptor EP2 subtype (Homo sapiens, UniProt P43116). The assay is described as follows: Binding Assay: Measurement of EP2 receptor binding affinity was carried out according to the method of Abramovitz et al. (Biochimica et Biophysica Acta, 1483, 285 (2000)). […] The membrane fraction was recovered on glass fiber filter paper (GF/B, available from Whatman PLC) using a cell harvester (M30R, available from Brandel Inc.), and after washing with a buffer solution (10 mM MES-KOH (pH 6.0), 10 mM MgCl2), radioactivity was measured with a liquid scintillation analyzer (2000CA, available from Packard). Format: cell membranes. To be noted: hek293.
Sequence of Prostaglandin E2 receptor EP2 subtype (P43116 whole entry): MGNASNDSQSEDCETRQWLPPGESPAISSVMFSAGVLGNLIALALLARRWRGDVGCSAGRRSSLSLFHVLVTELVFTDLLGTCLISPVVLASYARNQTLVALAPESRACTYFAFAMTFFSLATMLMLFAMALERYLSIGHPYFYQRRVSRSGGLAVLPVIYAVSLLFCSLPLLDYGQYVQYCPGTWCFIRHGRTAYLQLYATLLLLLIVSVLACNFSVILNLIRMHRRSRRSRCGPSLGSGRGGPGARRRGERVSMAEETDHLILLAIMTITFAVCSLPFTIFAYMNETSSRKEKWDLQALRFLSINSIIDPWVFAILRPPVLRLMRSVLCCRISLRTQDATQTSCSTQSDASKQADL

Regarding `O=C(O)c1[nH]c(-c2ccoc2)cc1-c1ccc(O)cc1`, the inhibition constant Ki worked out at 2.8 nM. Turning to `COC(=O)c1ccc(CNC(=O)c2[nH]c(-c3cccs3)cc2-c2ccc(F)cc2)nc1`, the Ki was 3.8 nM. The result for `O=C(NO)c1ccc(CNC(=O)c2[nH]c(-c3ccoc3)cc2-c2ccc(F)cc2)cc1` reads 1.1 nM. As for `O=C(NO)c1ccc(CNC(=O)c2[nH]c(-c3cccs3)cc2-c2ccc(O)cc2)cc1`, the Ki stood at 13 nM. On to `O=C(NO)c1ccc(CNC(=O)c2[nH]c(-c3ccc(O)cc3)cc2-c2ccoc2)cc1`, for which the Ki amounted to 9.4 nM. As for `COc1ccc(-c2cc(-c3ccccc3)[nH]c2C(=O)Nc2ccc(C(=O)NO)o2)cc1`, the inhibitory constant (Ki) was 3.1 nM. Consider `O=C(NO)c1ccc(CNC(=O)c2[nH]c(-c3ccccc3)cc2-c2ccc(F)cc2)o1`, for which the Ki stood at 1.5 nM.
